Tests used:
Format in all cases: biochemical
Pdr11p [1] = target: T1, Pdr11p (Saccharomyces cerevisiae, UniProt P40550); assay: radiolabelled ATPase assay (release of inorganic phosphate) with purified protein
T1 construct: gene PDR11; N-terminal FLAG-tagged Pdr11p, purified in DDM
T1 sequence (P40550 1-1411): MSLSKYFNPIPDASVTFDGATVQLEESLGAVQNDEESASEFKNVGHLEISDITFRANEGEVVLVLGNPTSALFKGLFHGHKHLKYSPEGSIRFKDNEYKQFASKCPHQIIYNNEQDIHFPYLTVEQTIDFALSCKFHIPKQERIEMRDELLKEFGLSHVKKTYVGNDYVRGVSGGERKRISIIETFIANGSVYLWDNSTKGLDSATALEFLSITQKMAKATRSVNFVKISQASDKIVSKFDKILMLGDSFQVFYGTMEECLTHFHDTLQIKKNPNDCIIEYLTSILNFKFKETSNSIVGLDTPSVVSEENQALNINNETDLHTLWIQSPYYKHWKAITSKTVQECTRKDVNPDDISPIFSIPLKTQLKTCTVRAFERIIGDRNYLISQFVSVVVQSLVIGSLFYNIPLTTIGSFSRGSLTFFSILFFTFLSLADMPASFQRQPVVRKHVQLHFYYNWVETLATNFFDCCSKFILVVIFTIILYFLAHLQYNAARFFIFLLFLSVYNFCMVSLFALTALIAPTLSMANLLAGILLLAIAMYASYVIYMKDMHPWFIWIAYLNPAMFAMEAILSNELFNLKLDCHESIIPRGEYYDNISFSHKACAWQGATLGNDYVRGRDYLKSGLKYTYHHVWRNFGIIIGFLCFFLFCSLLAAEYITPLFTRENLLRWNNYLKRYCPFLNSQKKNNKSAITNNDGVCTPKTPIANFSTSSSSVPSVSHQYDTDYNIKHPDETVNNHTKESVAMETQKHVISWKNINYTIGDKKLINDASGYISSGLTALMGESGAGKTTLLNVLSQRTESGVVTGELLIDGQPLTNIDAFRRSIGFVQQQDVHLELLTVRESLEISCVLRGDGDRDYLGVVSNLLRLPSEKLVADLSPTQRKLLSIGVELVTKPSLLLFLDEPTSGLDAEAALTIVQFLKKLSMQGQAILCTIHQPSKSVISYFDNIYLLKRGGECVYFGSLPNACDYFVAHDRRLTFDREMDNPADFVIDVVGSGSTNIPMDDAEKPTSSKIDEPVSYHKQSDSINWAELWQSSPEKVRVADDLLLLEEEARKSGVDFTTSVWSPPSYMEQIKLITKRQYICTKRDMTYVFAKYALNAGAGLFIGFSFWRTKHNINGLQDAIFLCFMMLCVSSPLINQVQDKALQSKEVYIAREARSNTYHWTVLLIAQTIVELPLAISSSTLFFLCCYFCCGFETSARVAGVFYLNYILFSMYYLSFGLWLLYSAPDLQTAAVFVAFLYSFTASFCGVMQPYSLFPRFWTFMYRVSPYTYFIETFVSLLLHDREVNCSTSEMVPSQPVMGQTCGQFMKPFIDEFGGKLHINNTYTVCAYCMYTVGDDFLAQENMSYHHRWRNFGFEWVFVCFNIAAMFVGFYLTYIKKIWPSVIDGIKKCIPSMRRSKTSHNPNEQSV

Aus1p = target: T2, Aus1p (Saccharomyces cerevisiae, UniProt Q08409); assay: radiolabelled ATPase assay with liposome-reconstituted protein
T2 construct: gene AUS1; FLAG-tagged Aus1p, purified and reconstituted in liposomes
T2 sequence (Q08409 1-1394): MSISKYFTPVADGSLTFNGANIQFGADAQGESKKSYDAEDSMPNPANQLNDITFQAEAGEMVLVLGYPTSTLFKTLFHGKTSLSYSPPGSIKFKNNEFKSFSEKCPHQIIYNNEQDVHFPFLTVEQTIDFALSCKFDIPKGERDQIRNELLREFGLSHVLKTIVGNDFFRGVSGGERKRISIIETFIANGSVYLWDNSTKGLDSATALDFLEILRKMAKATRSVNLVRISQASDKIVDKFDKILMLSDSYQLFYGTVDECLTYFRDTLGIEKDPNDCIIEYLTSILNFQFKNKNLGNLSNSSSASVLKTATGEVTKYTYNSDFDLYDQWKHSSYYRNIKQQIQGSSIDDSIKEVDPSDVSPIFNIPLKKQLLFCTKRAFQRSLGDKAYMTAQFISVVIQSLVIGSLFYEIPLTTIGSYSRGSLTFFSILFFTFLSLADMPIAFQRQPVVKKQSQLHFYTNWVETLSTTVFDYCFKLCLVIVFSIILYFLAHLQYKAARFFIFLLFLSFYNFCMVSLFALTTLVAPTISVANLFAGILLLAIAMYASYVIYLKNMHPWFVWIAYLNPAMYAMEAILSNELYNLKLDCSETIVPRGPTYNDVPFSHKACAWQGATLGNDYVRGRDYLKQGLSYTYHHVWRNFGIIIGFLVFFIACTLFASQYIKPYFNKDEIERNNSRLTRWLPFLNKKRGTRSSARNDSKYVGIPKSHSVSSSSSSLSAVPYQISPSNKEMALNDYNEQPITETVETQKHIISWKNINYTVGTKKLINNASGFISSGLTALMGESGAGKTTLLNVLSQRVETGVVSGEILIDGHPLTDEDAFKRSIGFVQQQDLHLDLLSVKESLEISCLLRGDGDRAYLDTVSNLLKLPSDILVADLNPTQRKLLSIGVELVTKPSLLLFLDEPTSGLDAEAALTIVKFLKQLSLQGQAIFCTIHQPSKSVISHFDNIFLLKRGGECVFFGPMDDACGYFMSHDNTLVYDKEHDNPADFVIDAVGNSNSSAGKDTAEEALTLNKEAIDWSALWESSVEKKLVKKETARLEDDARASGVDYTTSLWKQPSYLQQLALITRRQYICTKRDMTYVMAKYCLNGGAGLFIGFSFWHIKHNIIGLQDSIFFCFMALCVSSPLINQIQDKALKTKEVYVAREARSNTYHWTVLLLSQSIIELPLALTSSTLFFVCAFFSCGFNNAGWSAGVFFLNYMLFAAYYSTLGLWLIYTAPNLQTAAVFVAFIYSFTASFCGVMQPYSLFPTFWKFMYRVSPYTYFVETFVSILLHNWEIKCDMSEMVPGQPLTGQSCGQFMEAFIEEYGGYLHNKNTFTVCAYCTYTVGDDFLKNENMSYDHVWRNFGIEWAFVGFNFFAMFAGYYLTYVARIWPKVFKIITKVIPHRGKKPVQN

Pdr11p [2] = target: T1, Pdr11p; assay: radiolabelled ATPase assay with purified protein, […] AlF3
Pdr11p [3] = target: T1, Pdr11p; assay: radiolabelled ATPase assay, dose-response with purified protein

Structure (SMILES): Nc1ncnc2c1ncn2[C@@H]1O[C@H](COP(=O)(O)OP(=O)(O)OP(=O)(O)O)[C@@H](O)[C@H]1O [ATP]
- radiolabelled ATPase assay (release of inorganic phosphate) with purified protei (Pdr11p [1]): ~ 60 ± 24 nmol of ATP/min/mg of protein
- radiolabelled ATPase assay with liposome-reconstituted protein (Aus1p): Purified Pdr11p and Aus1p were reconstituted into different liposomes (containing Rho-PE as fluorescent lipid marker) and assayed for ATPase activity

Structure (SMILES): [F][Al]([F])[F] [aluminium fluoride]
- radiolabelled ATPase assay with purified protein, 1 mM AlF3 (Pdr11p [2]): strongly inhibited by the classical inhibitors of ABC proteins beryllium fluoride and aluminium fluoride (Fig 4B)

Structure (SMILES): [O]=[V]([OH])([OH])[OH] [orthovanadate]
- IC50 (Pdr11p [3]): 4 ± 2 mM
